In one assay the target is IDH1 R132C (Homo sapiens, UniProt O75874, R132C). Put plainly: IDH1 R132C enzymatic assay (NADPH depletion coupled to diaphorase/resazurin). It is filed as biochemical. Here is the method:
(§1) Assays were conducted in a 1536-well black solid-bottom plate with a final assay volume of 9 μL.
For IDH1 R132C, 3 μL of enzyme (0.00032 mg/mL IDH1 […], 10% glycerol, 50 mM potassium phosphate pH 6.5, 5 mM MgCl2, 0.03% BSA) were added to the plate, followed by the addition of 23 nL of test compound in DMSO. The plate was lidded and incubated at room temperature for 30 minutes at which time 3 μL of substrate were added (0.012 mM NADPH, 0.6 mM α-KG, 10% glycerol, 50 mM potassium phosphate pH 6.5, 5 mM MgCl2, 0.03% BSA). […]
For orientation: Alamar Blue is a resazurin reagent that responds to reducing activity.

The target in a further assay is IDH1 R132H (Homo sapiens, UniProt O75874, R132H). As to the kind of experiment: IDH1 R132H enzymatic assay (NADPH depletion coupled to diaphorase/resazurin). It is filed as biochemical. As to the method:
as §1
Specifically, for IDH1 R132H, 3 μL of enzyme (4 mM β-ME, 0.0005 mg/mL IDH1 R132H, 150 mM NaCl, 20 mM Tris pH 7.5, 10 mM MgCl2, 0.05% BSA) were added to the plate, followed by the addition of 23 nL of test compound in DMSO. The plate was lidded and incubated at room temperature for 30 minutes at which time 3 μL of substrate were added (0.016 mM NADPH, 2 mM α-KG, 150 mM NaCl, 20 mM Tris pH 7.5, 10 mM MgCl2, 0.05% BSA). This reaction was incubated at room-temperature for 60 minutes at which time the detection mix was added (0.06 mg/mL diaphorase, 0.036 mM resazurin, 150 mM NaCl, 20 mM Tris pH 7.5, 10 mM MgCl2, 0.05% BSA). […]

Where [1] appears, read: IDH1 R132C enzymatic inhibition, IC50 class.
Where [2] appears, read: IDH1 R132H enzymatic inhibition, IC50 class.
Setting [3] is: enzymatic inhibition, IDH1 R132C.
The mark [4] stands for this setting: enzymatic inhibition, IDH1 R132H.

pIC50: −log10 of the molar value.

Sequence of IDH1 R132C (O75874 whole entry R132C): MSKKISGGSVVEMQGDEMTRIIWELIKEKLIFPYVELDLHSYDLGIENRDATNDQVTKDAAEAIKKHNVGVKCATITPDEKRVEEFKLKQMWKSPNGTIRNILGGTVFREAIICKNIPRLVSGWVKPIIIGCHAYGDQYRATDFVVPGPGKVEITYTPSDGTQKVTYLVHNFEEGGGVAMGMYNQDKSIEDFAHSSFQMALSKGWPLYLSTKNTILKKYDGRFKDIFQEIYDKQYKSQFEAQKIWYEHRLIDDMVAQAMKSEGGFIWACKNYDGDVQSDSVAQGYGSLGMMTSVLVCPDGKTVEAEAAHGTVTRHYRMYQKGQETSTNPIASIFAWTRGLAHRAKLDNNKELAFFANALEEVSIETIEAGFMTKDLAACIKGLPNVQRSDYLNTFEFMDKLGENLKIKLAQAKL
Sequence of IDH1 R132H (O75874 whole entry R132H): as the sequence (O75874 whole entry R132C) above, with C132H counted along it

In general, pIC50 refers to the negative decadic logarithm of the IC50, by convention in mol/L. As for `CCc1cccc(CC)c1-n1c2c(cc(-c3nc(-c4cccc(Cl)c4)cs3)c1=O)C(=O)CC(C)(C)C2` [Compound 205], the pIC50 was 5.30 to 6.00 at IDH1 R132C (setting [1]) and less than 4.70 against IDH1 R132H (setting [2]).

As to `CCc1cccc(CC)c1-n1c2c(cc(-c3nc(-c4ccccc4F)cs3)c1=O)C(=O)CC(C)(C)C2` [Compound 226], the pIC50 on IDH1 R132C (setting [1]) and against IDH1 R132H (setting [2]) was 5.30 to 6.00 in each case.

As to `CCc1cccc(CC)c1-n1c(C)c(C(=O)NC2CCC(N)CC2)cc(-c2nc(-c3ccc(Cl)cc3)cs2)c1=O` (stereo not drawn) [Compound 237], the negative logarithm of the IC50 (pIC50) at IDH1 R132C (setting [1]) and on IDH1 R132H (setting [2]) was 4.70 to 5.30 throughout.

As to `COc1ccc(F)cc1-n1c(C=C(C)C)c(C(=O)N2CCNCC2)cc(-c2ccn(-c3ccc(C(F)(F)F)cc3)n2)c1=O` [Compound 532], the pIC50 against IDH1 R132C (setting [3]) is 5.30 to 6.00; on IDH1 R132H (setting [4]), 6.00 to 6.52.

Regarding `CC(C)=Cc1c(C(=O)N2CCNCC2)cc(-c2nc(-c3ccc(Cl)cc3)cs2)c(=O)n1-c1cc(Cl)ccc1Cl` [Compound 359], the negative logarithm of the IC50 (pIC50) against IDH1 R132C (setting [1]) and on IDH1 R132H (setting [2]) was greater than 6.52 each time.

For `CC1(C)CC(=O)c2cc(-c3nc(-c4ccc(Cl)cc4)cs3)c(=O)n(C3CCCc4ccccc43)c2C1` (stereo not drawn) [Compound 19], the negative-log IC50 (pIC50) against IDH1 R132C (setting [1]) is 6.00 to 6.52; at IDH1 R132H (setting [2]), less than 4.70.

As for `Cc1ccccc1-n1c2c(cc(-c3nc(-c4ccc(Cl)cc4)cs3)c1=O)C(=O)CC(C)(C)C2` [Compound 22], the pIC50 against IDH1 R132C (setting [1]) was 6.00 to 6.52; on IDH1 R132H (setting [2]), 5.30 to 6.00.

Take `CCc1cccc(CC)c1-n1c(C(CC)OC)c(C(=O)N2CCNCC2)cc(-c2nc(-c3ccc(Cl)cc3)cs2)c1=O` (stereo not drawn) [Compound 456]: the pIC50 against IDH1 R132C (setting [3]) and against IDH1 R132H (setting [4]) was 6.00 to 6.52 in each case.

Consider `CCc1cccc(CC)c1-n1c(CC(C)C)c(C(=O)N2CCNCC2)cc(-c2nc(-c3ccc(C(=O)NC4CCCC4)cc3)c(C)s2)c1=O` [Compound 188], for which the pIC50 at IDH1 R132C (setting [1]) and against IDH1 R132H (setting [2]) was 4.70 to 5.30 each time.

Consider `COc1ccccc1Cn1c2c(cc(-c3nc(-c4ccc(Cl)cc4)cs3)c1=O)C(=O)CC(C)(C)C2` [Compound 203], for which the pIC50 against IDH1 R132C (setting [1]) and against IDH1 R132H (setting [2]) was 5.30 to 6.00 each time.

With `CCc1cccc(CC)c1-n1c(CC(C)C)c(C(=O)N2CCNCC2)cc(-c2nc(-c3ccc(Cl)cc3)c(C3CC3)s2)c1=O` [Compound 385], the pIC50 at IDH1 R132C (setting [1]) was greater than 6.52; at IDH1 R132H (setting [2]), 6.00 to 6.52.

Take `CCOc1ncc(C)cc1-n1c(C=C(C)C)c(C(=O)N2CCNCC2)cc(-c2nc(-c3ccc(C(F)F)cn3)cs2)c1=O` [Compound 592]: the pIC50 was 5.30 to 6.00 at IDH1 R132C (setting [3]) and 6.00 to 6.52 against IDH1 R132H (setting [4]).

Take `CCc1cccc(CC)c1-n1c(C)c(C(=O)N(C)C)cc(-c2nc(-c3ccc(Cl)cc3)cs2)c1=O` [Compound 271]: the pIC50 at IDH1 R132C (setting [1]) and on IDH1 R132H (setting [2]) was 5.30 to 6.00 each time.

Regarding `COc1ccc(OC)c(-n2c3c(cc(-c4nc5cc(Cl)ccc5s4)c2=O)C(=O)CC(C)(C)C3)c1` [Compound 175], the values for the pIC50 at IDH1 R132C (setting [1]) and on IDH1 R132H (setting [2]) were 6.00 to 6.52 and greater than 6.52, respectively.

With `CCc1cccc(CC)c1N1C(=O)C(c2nc(-c3ccc(Cl)cc3)cs2)CC(C(=O)N2CCNCC2)=C1CC(C)C` (stereo not drawn) [Compound 356], the pIC50 on IDH1 R132C (setting [1]) was greater than 6.52; against IDH1 R132H (setting [2]), 6.00 to 6.52.

On to `CN1CCN(Cc2cccc(-n3c4c(cc(-c5nc(-c6ccc(Cl)cc6)cs5)c3=O)C(=O)CC(C)(C)C4)c2)CC1` [Compound 445], for which the pIC50 on IDH1 R132C (setting [3]) and at IDH1 R132H (setting [4]) was 4.70 to 5.30 in each case.

Take `CCc1ccc(Cl)cc1-n1c(C=C(C)C)c(C(=O)N2CCNCC2)cc(-c2nc(-c3ccc(C(F)(F)F)cc3)cs2)c1=O` [Compound 576]: the pIC50 at IDH1 R132C (setting [3]) and at IDH1 R132H (setting [4]) was greater than 6.52 each time.

As for `CCc1cccc(CC)c1-n1c(CC(C)C)c(C(=O)N2CCCCC2CO)cc(-c2nc(-c3ccc(Cl)cc3)cs2)c1=O` (stereo not drawn) [Compound 312], the figures for the negative logarithm of the IC50 (pIC50) on IDH1 R132C (setting [1]) and at IDH1 R132H (setting [2]) were 6.00 to 6.52 and 5.30 to 6.00, respectively.

With `CC1(C)CC(=O)c2cc(-c3nc(-c4ccc(Cl)cc4)cs3)c(=O)n(-c3ccccn3)c2C1` [Compound 121], the pIC50 against IDH1 R132C (setting [1]) and against IDH1 R132H (setting [2]) was 4.70 to 5.30 each time.

Consider `COc1ccc(C(N)=O)cc1-n1c2c(cc(-c3nc(-c4ccc(Cl)cc4)cs3)c1=O)C(=O)CC(C)(C)C2` [Compound 423], for which the pIC50 against IDH1 R132C (setting [3]) and at IDH1 R132H (setting [4]) was 5.30 to 6.00 throughout.

Take `CCc1cccc(CC)c1-n1c(C=C(C)C)c(C(=O)N(C)C2CCNCC2)cc(-c2nc(-c3ccc(Cl)cc3)cs2)c1=O` [Compound 523]: the pIC50 against IDH1 R132C (setting [3]) and against IDH1 R132H (setting [4]) was greater than 6.52 in each case.

For the origin of these results see patent US10703746B2, “Mutant IDH1 inhibitors useful for treating cancer” (THE UNITED STATES OF AMERICA, AS REPRESENTED BY THE …, priority 2014, dated 2020).
